A short description of data set [1]: Curing experiments: belt cure under LED lamp at 395 nm. Conditions: LED 395 nm, 50 μm film. The method, then: Testing Protocol: Formulations were prepared by combining all materials in the given proportions and then stirring at 30-40° C. until the samples were fully homogeneous; the formulations were then allowed to cool to 20° C. All components remained fully dissolved in the resin formulations throughout these experiments. For all experiments, the formulations were cured on Leneta Form 3N-31 gloss finish paper at 50 μm film thickness using a belt-cure instrument; the films were prepared using a K-bar. All films were then cured under an LED lamp at 395 nm at a belt speed of 10 m/min. The cure speed for each formulation was calculated from the number of passes under each lamp required to give complete surface cure (determined when light scratching of the surface of the film no longer left a mark) and depth cure (determined using the ‘thumb-twist’ test, where no visible mark is made when a thumb is pressed down firmly onto the coating with a twisting motion), and from the belt speed; the calculated cure speed (in m/min) is given in Tables 1A-1B as an average of 3 runs. Where cure speed was less than 0.3 m/min, the result was recorded as ‘No cure’.

Data set [2] is described as follows: FTIR test: acrylate conversion. Conditions: FIG. 2A. The method, then: A Fourier Transform Infrared (FTIR) with an Attenuated Total Reflection (ATR) setup was used. All polymerization rate measurements were performed using Nicolet iS50 FT-IR Spectrometer from Thermo Scientific, equipped with a standard DLaTGS detector. A lamp holder for the ART platform of FTIR unit can be customized and printed from Arkema N3xtDimention® engineered resin N3D-TOUGH784 in order to ensure precisely fit of a 405 nm lamp AccuCure ULM-2-405 from Digital Light Labs. On the bottom of this lamp holder, a dry air channel is built in to allow air uniformly blowing over sample surface, the gas flow rate can be controlled over a rotameter. The LED light was manually triggered by Ultraviolet illumination & Measurement System. […] Measurements of acrylate conversion were taken at the height under the reference peak around 1720 cm^−1; the acrylate peak at approximately 1407 cm^−1 was also measured. Peak height was determined using the baseline technique where a baseline is chosen to be the two lowest points between 600 cm^−1 and 1800 cm^−1. The height under the peak and above the baseline was then determined. […]
The ratio of the acrylate height to the reference peak height were determined for both the liquid and the cured samples. Degree of cure or conversion, expressed as percentage reacted acrylate, was calculated from the equation below: […]

Data set [3] is described as follows: Stability by LED-FTIR analysis at 405 nm (accelerated ageing). Conditions: photoinitiator or formulation aged at 60° C. for 1 week, 10 mW, dry air, FIG. 6A/6B. Type of data set: physicochemical. The procedure:
The cure speed of aged samples comprising Photoinitiator 11 vs Speedcure TPO was acquired in experimental formulations using LED-FTIR analysis. The photoinitiator was aged at 60° C. for 1 week, then made into formulation and directly compared to ageing the photoinitiator in formulation at 60° C. for 1 week.
LED FT-IR Analysis was conducted on a ThermoScientific Nicolet iS50 Ft-IR Spectrometer with a standard DLaTGS detector 2. A film applicator was used to spread the applied sample into a film of 3 mils thickness. For analysis all the spectra are normalized by using the 1727 cm^−1 (—C═O stretch) peak as reference. For acrylic monomers, the decrease in peak height of C═C peak at 1407 cm^−1 was used for measuring conversion versus time The degree of conversion of the monomers was calculated by measuring the peak height. The stability results for the formulations comprising Speedcure TPO are shown in FIG. 6A and stability the results for the formulations comprising Photoinitiator 11 are shown in FIG. 6B.

Data set [4] can be described thus: LED-DSC test of 3D printing curable compositions. The method, then: A photo differential scanning calorimetry (DSC) with a customized 405 nm LED lamp setup was used. All photopolymerization rate measurement were performed using a Q2000 DSC unit from TA Instruments. A lamp holder for the DSC unit can be customized and printed from Arkema N3xtDimention® engineered resin N3D-TOUGH784 in order to ensure precisely fit of a 405 nm lamp AccuCure ULM-2-405 from Digital Light Labs. The LED light was automatically triggered by connecting the “Event” outlet of the DSC unit to an Accure Photo Rheometer Ultraviolet Illumination & Measurement System. LED light exposure can be programed by using “Event” on or off from Photo DSC software, but the intensity of light can be preset from the Accure Photo Rheometer Ultraviolet Illumination & Measurement System. For measurement, approximate 10 mg liquid sample was placed at the center of a T130522 DSC Tzero pan, cured by exposing it to 50 mW/cm^2 of 405 nm LED light for 0.3 minutes under a 50 mL/min N2 flow rate and 40° C. The resulting heat flow (W/g) curve was collected to analyze maximum heat flow peak value and maximum peak time, and listed in Table 3A.

Data set [5] is described as follows: UV PhotoDSC of nail gel top coat compositions. The procedure: Photo Differential Scanning Calorimetry (PhotoDSC) was used to measure the cure speed, heat generation during cure and heat flow measurements for the UV curable top coat compositions containing TPO, TPO-L and Photoinitiator 9 as shown in Table 2C below. PhotoDSC was measured using a TA instruments Q2000 DSC equipped with an EFOS A4000 Acticure UVNisible light curing system containing a 100 W Mercury lamp light source. The UV-light intensity was measured out of the sample window using an EIT UV power puck II radiometer prior to the experiment. Sample preparation for PhotoDSC occurred as follows: A Tzero aluminum reference pan and a Tzero aluminum sample pan were weighed. One drop of formulation (about 5-15 milligrams) was placed at the center of the sample pan and the mass was recorded. The two pans were placed in the DSC apparatus. The system was stabilized at 25° C. for 30 seconds under a continuous stream of nitrogen. An isothermal experiment was initiated and sample and reference pan were flooded with UVNisible light (320 to 450 nm, 190-210 mJ/cm^2) for two minutes. An exothermic peak, due to crosslinking, is recorded during the experiment. The cure speed is measured by determining the time it takes to reach the peak max while the lamp is turned on. The area under the peak is recorded as the heat flow value (J/g). The max temperature during cure is recorded as the temperature shown at the maximum peak during cure.

The nature of data set [6]: Stability in inkjet formulations, LED curing 395 nm. Type of data set: physicochemical. Conditions: cyan ink, 6 μm film; FIG. 7B. The procedure:
Resins and photoinitiators were mixed at the target weight ratio before gently stirring using magnetic stirrers at 30-40° C. for 3 hours. Solubility was checked by eye to confirm full dissolution. Curing results at target film weight, were checked by lightly scratching for surface curing and compressed thumb twist for depth curing. Average curing speed was calculated using the belt speed divided by the passing number recorded when full cured resin was achieved. For practical purposes, curing speed less than 0.3 m/min was categorised as “No cure”. Duplicate curing was performed for the same formulation, average curing speed was used for final comparisons. […] Comparison of the initial cure speed vs the cure speed of aged samples was directly compared. […] Film weights were 6 μm.

Data set [7] can be described thus: Stability in inkjet formulations, mercury curing. Type of data set: physicochemical. Conditions: cyan ink, same phosphine oxide w/w %, 6 μm film; FIG. 7A. The procedure:
Resins and photoinitiators were mixed at the target weight ratio before gently stirring using magnetic stirrers at 30-40° C. for 3 hours. Solubility was checked by eye to confirm full dissolution. Curing results at target film weight, were checked by lightly scratching for surface curing and compressed thumb twist for depth curing. Average curing speed was calculated using the belt speed divided by the passing number recorded when full cured resin was achieved. For practical purposes, curing speed less than 0.3 m/min was categorised as “No cure”. Duplicate curing was performed for the same formulation, average curing speed was used for final comparisons.
Cure speed of samples was checked at T=0, then samples were aged in an oven at 60° C. for 2 weeks before reassessing cure speed. Comparison of the initial cure speed vs the cure speed of aged samples was directly compared. Lamp system: the mercury lamp was at an intensity of 50%, with belt speed 10 m/min The LED lamp was set at 395 nm, with a lamp intensity of 70%, at belt speed 20 m/min

Setting [8] is: 8% w/w photoinitiator in 7:3 w/w bisphenol A ethoxylate diacrylate/tripropylene glycol diacrylate, average of 3 runs.
The mark [9] stands for this setting: same active phosphine oxide concentration (given Wt %) in 7:3 w/w bisphenol A ethoxylate diacrylate/tripropylene glycol diacrylate.
[10] abbreviates: compositions containing 2 wt % photoinitiator.
Where [11] appears, read: compositions containing 4 wt % photoinitiator.

Regarding `CCCCNC(=O)C(CC(=O)c1c(C)cc(C)c(C(=O)P(=O)(c2ccccc2)c2ccccc2)c1C)N1CCOCC1` (single isomer, unassigned) [Photoinitiator 3], the “Cure speed (m/min) Depth cure” value worked out at 3.9 m/min in data set [1] (setting [8]) and 5.0 m/min in data set [1] (setting [9]). The “Cure speed (m/min) Surface cure” value is recorded as “No cure (Where cure speed was less than 0.3 m/min, the result was recorded as ‘No cure’)” in data set [1] (setting [8]) and 1.7 m/min in data set [1] (setting [9]).
As to `CCCCNC(=O)C(CC(=O)c1c(C)cc(C)c(C(=O)P(=O)(c2ccccc2)c2ccccc2)c1C)N1CCN(C)CC1` (single isomer, unassigned) [Photoinitiator 4], in data set [1] (setting [8]), the “Cure speed (m/min) Depth cure” value came out at 5.0 m/min and the “Cure speed (m/min) Surface cure” value was “No cure (Where cure speed was less than 0.3 m/min, the result was recorded as ‘No cure’)”. Also, in data set [1] (setting [9]), the “Cure speed (m/min) Depth cure” value is recorded as 5.0 m/min and the “Cure speed (m/min) Surface cure” value came to 1.6 m/min.
As for `CCCCNC(=O)/C=C\C(=O)c1c(C)cc(C)c(C(=O)P(=O)(c2ccccc2)c2ccccc2)c1C` [Precursor 3], in data set [1] (setting [8]), the “Cure speed (m/min) Depth cure” value stood at 1.8 m/min and the “Cure speed (m/min) Surface cure” value was “No cure (Where cure speed was less than 0.3 m/min, the result was recorded as ‘No cure’)”. In addition, in data set [1] (setting [9]), the “Cure speed (m/min) Depth cure” value is on record as 1.8 m/min and the “Cure speed (m/min) Surface cure” value is “No cure (Where cure speed was less than 0.3 m/min, the result was recorded as ‘No cure’)”.
As to `Cc1cc(C)c(C(=O)P(=O)(c2ccccc2)c2ccccc2)c(C)c1` [SpeedCure TPO, 2,4,6-trimethylbenzoyl diphenyl phosphine oxide], the “cure speed in formulations at the same equivalent of phosphine oxide” value in data set [2] and in data set [4] was “Precursor 4<Photoinitiator 6<TPO” in each case. In addition, in data set [3], the “stability: cure speed after accelerated ageing” value is on record as “larger reduction in cure speed than Photoinitiator 11”. The “Cure speed (m/min) Depth cure” value in data set [1] (setting [8]) and in data set [1] (setting [9]) was 5.6 m/min each time. Further, the “Cure speed (m/min) Surface cure” value in data set [1] (setting [8]) and in data set [1] (setting [9]) was 2.2 m/min in each case. Besides, the entries for the “time to peak max” value in data set [5] (setting [10]) and in data set [5] (setting [11]) were 0.5 min and 0.06 min, respectively.
In the case of `Cc1cc(C)c(C(=O)P(=O)(C(=O)c2c(C)cc(C)cc2C)c2ccccc2)c(C)c1` [Speedcure BPO, bis-(2,4,6-trimethylbenzoyl)phenyl phosphine oxide], the “initial curing under 395 nm LED” value in data set [6] was “best curing results”. The “initial curing performance under mercury lamp” value in data set [7] was “closely followed”.
In the case of `CCOP(=O)(C(=O)c1c(C)cc(C)cc1C)c1ccccc1` (stereo not shown) [Speedcure TPO-L, Ethyl (2,4,6-trimethylbenzoyl)phenyl phosphinate], the “time to peak max” value in data set [5] (setting [10]) and in data set [5] (setting [11]) was 0.06 min in each case.
